Values joined by “and” are separate entries in the source; they are usually repeats but may differ in a detail not shown here. Identical values can stand only once. After the bases stand the sugars from the 5' end (letter, count) and the backbone: PS all phosphorothioate, else s phosphorothioate and o phosphodiester by linkage. Methylation of C is not given here. e = 2'-O-(2-methoxyethyl) (MOE); k = constrained ethyl (cEt); d = 2'-deoxy (DNA); m = 2'-O-methyl

This note sets out measurements from the OligoGym collection.

For the first series, the target named is HSD17B13. The settings on record: ASO, HepaRG, 0.02 µM.
Consider ACACTAATATTGAGGC (sugars k3 d10 k3, PS), for which the target mRNA inhibition is 28%.
On to GGAGATATAACATTAC (sugars k3 d10 k3, PS), for which the target mRNA inhibition was 10%.
On the same count and under the same terms, the result for “TAAAATAGAGTCGGTC (sugars k3 d9 k3 e1, PS)” reads 0%.

The same series, now with this note: ASO, HepaRG, 0.078 µM.
ACACTAATATTGAGGC (sugars k3 d10 k3, PS) showed a target mRNA inhibition of 32%.
On the same count and under the same terms, the result for GGAGATATAACATTAC (sugars k3 d10 k3, PS) reads 10%.
Same read-out and setting: to “TAAAATAGAGTCGGTC (sugars k3 d9 k3 e1, PS)” belongs 12%.

Still in this series, the particulars now being: ASO, HepaRG, 0.313 µM.
ACACTAATATTGAGGC (sugars k3 d10 k3, PS) came in with a target mRNA inhibition of 37%.
The same measure, in the same setting: the result for GGAGATATAACATTAC (sugars k3 d10 k3, PS) reads 42%; that for “TAAAATAGAGTCGGTC (sugars k3 d9 k3 e1, PS)”, 31%.

Staying with this series, now noted: ASO, HepaRG, 1 µM.
Regarding “GGTCACCTTTCATAAT (sugars k3 d1 m1 d8 k3, PS)”, the target mRNA inhibition came out at 48%.
Still for that read-out and setting: the result for CACTTTGGTATTGTTG (sugars k3 d10 k3, PS) reads 53%; that for CCTTTGTATTTCGCTA (sugars k3 d10 k3, PS), 47%; that for “TCTGGGACCAAGGATA (sugars kkdddddddddkekek, PS)”, 56%.
The same measure, in the same setting: to ACCCTTAGGAAAGCTC (sugars k3 d10 k3, PS) belongs 52%; to TAATTAATCTTGTTCG (sugars k3 d10 k3, PS), 63%; to ATGCTAGTAATTGCAT (sugars k3 d10 k3, PS), 16%.
Consider GTTATCAGAAACTTAT (sugars k3 d10 k3, PS), for which the target mRNA inhibition came to 31%.
Same read-out and setting: the result for CCAGAATAGAGTTGCA (sugars k3 d10 k3, PS) reads 62%; that for GTCGGATTATTTTTTC (sugars k3 d10 k3, PS), 61%.
The same measure, in the same setting: to “CCTCGATCCTATATAC (sugars k3 d9 k3 e1, PS)” belongs 11%.
TCGATGGAAGAAGTGC (sugars k3 d10 k3, PS) had a target mRNA inhibition of 34%.
In turn, “AGGATAGTCCATGCAA (sugars kkdddddddddkekek, PS)” displayed a target mRNA inhibition of 46%.
On the same count and under the same terms, to AGTAATTCTAAACTAG (sugars k3 d10 k3, PS) belongs 31%; to TATTAATATGACTTGC (sugars k3 d10 k3, PS), 25%.
AATACGACTTCCTTCT (sugars k3 d10 k3, PS) yielded a target mRNA inhibition of 26%.
The same measure, in the same setting: the result for AATAGTCTTCAGCAAA (sugars k3 d10 k3, PS) reads 48%; that for “GTAAUAGCCAGTACAG (sugars k3 d1 m1 d8 k3, PS)”, 62%; that for “TCTTAGCTGTGCACTC (sugars kkdddddddddkekek, PS)”, 50%.
Still for that read-out and setting: to CTAAACCCTGGAGCAG (sugars k3 d10 k3, PS) belongs 42%.
Take TAGTCTTGATGTAGTG (sugars k3 d10 k3, PS): the target mRNA inhibition stood at 55%.
The same measure, in the same setting: to ATGATTGAATTCACTA (sugars k3 d10 k3, PS) belongs 33%.
Same read-out and setting: the result for GAGATTACCCCTGGCT (sugars k3 d10 k3, PS) reads 72%.
The same measure, in the same setting: the result for ATAGGCTAAAATGGTC (sugars k3 d10 k3, PS) reads 61%; that for ACACTAATATTGAGGC (sugars k3 d10 k3, PS), 68%.
Sequence TTGAACAGTCTTAAAC (sugars k3 d10 k3, PS) registered a target mRNA inhibition of 33%.
Sequence CTCAACAGAGAATTGT (sugars k3 d10 k3, PS) displayed a target mRNA inhibition of 29%.
Still for that read-out and setting: the result for AGTTAGAATAGTCTTC (sugars k3 d10 k3, PS) reads 67%; that for “ATCTUATAAGACTATA (sugars k3 d1 m1 d8 k3, PS)”, 35%; that for “TAGTATAGTTATCTTC (sugars k3 d9 k3 e1, PS)”, 28%.
Still for that read-out and setting: the result for CCTTTAGTTAGAATAG (sugars k3 d10 k3, PS) reads 37%; that for “AAACAAGAGGATAGTC (sugars kkkdddddddkdkkke, PS)”, 45%; that for “TCACCTTTCATAATGT (sugars k3 d9 k3 e1, PS)”, 41%.
Same read-out and setting: to “AGATAAAGCTGCCTGC (sugars k3 d9 k3 e1, PS)” belongs 44%.
Take CCAGTAGGTGTGTTTC (sugars k3 d10 k3, PS): the target mRNA inhibition was found to be 55%.
The same measure, in the same setting: the result for “CATATGTGAAGAGCTG (sugars kkdddddddddkekek, PS)” reads 35%; that for “TTAAAATAGAGTCGGT (sugars k3 d9 k3 e1, PS)”, 71%; that for GAGTTATTCTCTTGAC (sugars k3 d10 k3, PS), 57%.
Still for that read-out and setting: to TGGGAGTCGGATTATT (sugars k3 d10 k3, PS) belongs 44%; to “TGACAATGGTTGATAG (sugars kkdddddddddkekek, PS)”, 37%.
For ATTTAGGGCAAACCTT (sugars k3 d10 k3, PS), the target mRNA inhibition is 35%.
Sequence ATACTGAAATTGATAC (sugars k3 d10 k3, PS) yielded a target mRNA inhibition of 11%.
On the same count and under the same terms, the result for ATAGATCCTTTTTTGG (sugars k3 d10 k3, PS) reads 6%.
The same measure, in the same setting: the result for “GGGAGGTAGCTTTTGT (sugars kkdddddddddkekek, PS)” reads 66%; that for GAAACTTGATCTCTTA (sugars k3 d10 k3, PS), 64%; that for CTTATTGGTAAGTATT (sugars k3 d10 k3, PS), 22%.
GCTTAGTTCATTGTGA (sugars k3 d10 k3, PS) displayed a target mRNA inhibition of 45%.
As for GTAATTGCTATAGTAA (sugars k3 d10 k3, PS), the target mRNA inhibition came to 33%.
On the same count and under the same terms, the result for AAATCTTGTGTAACTG (sugars k3 d10 k3, PS) reads 41%; that for “CTTGATCTCTTAGCTG (sugars k3 d9 k3 e1, PS)”, 36%; that for TATGTAATAGGCAGTA (sugars k3 d10 k3, PS), 62%.
The same measure, in the same setting: the result for ACAGTTGAGTAGTGTA (sugars k3 d10 k3, PS) reads 72%; that for TGCCAAGCTTTGTGTC (sugars k3 d10 k3, PS), 38%.
As for TATAGACTGGGTAGGA (sugars k3 d10 k3, PS), the target mRNA inhibition was determined as 61%.
On the same count and under the same terms, the result for TCCTAGGGAGGAGGTA (sugars k3 d10 k3, PS) reads 33%; that for ACAGAGAATTGTTTAG (sugars k3 d10 k3, PS), 39%; that for CACTTTTGGTGGACTT (sugars k3 d10 k3, PS), 21%.
On the same count and under the same terms, the result for AGCATATTCATTTGGC (sugars k3 d10 k3, PS) reads 61%.
On the same count and under the same terms, the result for ATAGCTAAGTATACTT (sugars k3 d10 k3, PS) reads 0%.
Turning to CCAAACATGGATGTTA (sugars k3 d10 k3, PS), the target mRNA inhibition was determined as 43%.
Same read-out and setting: the result for AAAATCGCTGCTTAGT (sugars k3 d10 k3, PS) reads 35%; that for “CAAGAGGATAGTCCAT (sugars kkdddddddddkekek, PS)”, 22%; that for ATCGATGGAAGAAGTG (sugars k3 d10 k3, PS), 39%.
The same measure, in the same setting: to “GTTTUTAAGAGGCATG (sugars k3 d1 m1 d8 k3, PS)” belongs 38%.
In turn, “GGCTACAGATTGGAAT (sugars k3 d9 k3 e1, PS)” yielded a target mRNA inhibition of 28%.
In the case of TTAAGAGAAGGTGCAC (sugars k3 d10 k3, PS), the target mRNA inhibition was found to be 38%.
On the same count and under the same terms, to “TCATAGTGGACTTCAT (sugars kkdddddddddkekek, PS)” belongs 48%.
CATTACATATCAATGC (sugars k3 d10 k3, PS) yielded a target mRNA inhibition of 29%.
On the same count and under the same terms, to “GAGACATGAGGTTTTG (sugars kkdddddddddkekek, PS)” belongs 49%.
Consider GGAGATATAACATTAC (sugars k3 d10 k3, PS), for which the target mRNA inhibition is 70%.
Still for that read-out and setting: to “CTTAAACCTTCCCTGT (sugars k3 d9 k3 e1, PS)” belongs 34%; to TTTCTCTCCATCATCG (sugars k3 d10 k3, PS), 27%.
On the same count and under the same terms, the result for ACTGATTTAGTTGGTA (sugars k3 d10 k3, PS) reads 55%; that for TTGACTGCTGCTAGTG (sugars k3 d10 k3, PS), 30%; that for AATGTAAGAAGCCACG (sugars k3 d10 k3, PS), 26%.
Same read-out and setting: the result for CGATTGTTACATCACC (sugars k3 d10 k3, PS) reads 47%; that for ATATGGGATGAGGTAA (sugars k3 d10 k3, PS), 37%.
Take “TGAAGTTAGTATAGTT (sugars k3 d1 m1 d8 k3, PS)”: the target mRNA inhibition is 62%.
On the same count and under the same terms, the result for GCTTACGACAGGTCAT (sugars k3 d10 k3, PS) reads 73%; that for CCACGATTGTTACATC (sugars k3 d10 k3, PS), 42%; that for TGTTGATATTCTGTGG (sugars k3 d10 k3, PS), 68%.
Consider ACTGAAATTGATACAC (sugars k3 d10 k3, PS), for which the target mRNA inhibition was 49%.
For GAGTAATCAGTTTTCC (sugars k3 d10 k3, PS), the target mRNA inhibition came out at 65%.
Consider CAATTATGAATCTGCA (sugars k3 d10 k3, PS), for which the target mRNA inhibition worked out at 25%.
Same read-out and setting: to ACAGAACCAATATGCT (sugars k3 d10 k3, PS) belongs 40%; to “AGGTAGCTTTTGTCCA (sugars kkdddddddddkekek, PS)”, 26%; to ACAGAGTTATTGTAGG (sugars k3 d10 k3, PS), 58%.
As to CAGCATCAAGACATTC (sugars k3 d10 k3, PS), the target mRNA inhibition is 72% and 70%.
Still for that read-out and setting: to “TAAAATAGAGTCGGTC (sugars k3 d9 k3 e1, PS)” belongs 74%.
Sequence AATTTCATACAGTTCG (sugars k3 d10 k3, PS) yielded a target mRNA inhibition of 66%.

Still in this series, the particulars now being: ASO, HepaRG, 1.25 µM.
The sequence ACACTAATATTGAGGC (sugars k3 d10 k3, PS) yielded a target mRNA inhibition of 58%.
GGAGATATAACATTAC (sugars k3 d10 k3, PS) registered a target mRNA inhibition of 68%.
The same measure, in the same setting: the result for “TAAAATAGAGTCGGTC (sugars k3 d9 k3 e1, PS)” reads 55%.

The series is the same for the next values; noted with them: ASO, HepaRG, 5 µM.
ACACTAATATTGAGGC (sugars k3 d10 k3, PS) registered a target mRNA inhibition of 85%.
The sequence GGAGATATAACATTAC (sugars k3 d10 k3, PS) gave a target mRNA inhibition of 88%.
In the case of “TAAAATAGAGTCGGTC (sugars k3 d9 k3 e1, PS)”, the target mRNA inhibition is 77%.
